Read-outs that look alike come from different tables or passages of the source.
Tests used:
[1] = Preclinical population PK model (NONMEM) of oral cabazitaxel and ritonavir in Cyp3aXAV mice
Protocol: Population PK modeling was performed using nonlinear mixed-effects modeling in NONMEM (version 7.5.0, ICON Development Solutions, Ellicott City, MD, USA) with a gfortran compiler and Perl-speaks-NONMEM (version 5.3.0) (Beal SL SL. NONMEM user guides. Ellicott City, Maryland, USA. 1989; Lindbom et al. Comput Methods Programs Biomed. 2005). All models were fit with first order conditional estimation method with η-ε interaction (FOCE-I). Pirana (version 2.9.9) was used as a modeling interface. R (version 4.0.4) was used for data management, visual model evaluation, and analysis and visualization of simulation data.
Due to its predictive value for human hepatic CYP3A metabolism, the PK data obtained in the Cyp3aXAV mouse model was used in the current study (Damoiseaux et al. Pharmaceuticals. 2022). […] Depending on the study, each experiment was terminated by cardiac puncture at either 2 hours or 24 hours after administration.
In the development of the compartmental PK models, inclusion of model elements, such as the number of compartments, inter-individual variability (IIV), covariate effects, and residual random effects were guided by differences in objective function value (OFV), plausibility of parameter estimates, observation of trends in goodness of fit plots, and differences in estimation precision.
This well-stirred liver model assumes the liver to have a fixed volume and blood flow and hepatic clearance (CL) is calculated as a function of hepatic blood flow (Q1) and intrinsic clearance (CLi) following Eq.1.
In the variability model, it was assumed that IIV is log-normally distributed. With Eq. 5 defining the expression for the individual parameter estimate θi.
Where θpop represents population mean parameter estimate and ηi represents its individual deviation, which is distributed following N (0, ω^2). For both PK models, in was assumed that the residual error has both an additive and proportional component. The additive component of the error model was included only for observations which were designated as <LLOQ. Time points for which no quantity of either drug could be detected were discarded. For determination of the LLOQ a signal-to-noise ratio (S/N) of 10 is applied. Thus, a fixed additive error was set for observations <LLOQ which was set to 1/10th of the LLOQ for the respective compound. Consequently, individual model predictions are related to observations following Eq. 6.
Where Cobs,ij represents the observation for the ith subject and the jth measurement. With Cpred,ij the respective prediction. Both the proportional error ep, and additive error εa,ij were assumed to be distributed following N (0, σ^2). LLOQij was included as a data record, which was set to one for observations that were below the limit of quantification.
Evaluation of candidate models was based on plausibility and precision of parameter estimates, observation of trends in goodness-of-fit plots, η and ε-shrinkage, and decreases in OFV for which a change in OFV of 3.84, corresponding to α=0.05, was considered to be significant for hierarchical models. All models were required to achieve successful minimization. The predictive performance of the model was evaluated by simulating 500 datasets using the candidate models from which the 5th, 50th, and 95th percentiles were calculated, along with their 95% confidence intervals, which were compared with the 5th, 50th, and 95th of the observations using a visual predictive check (VPC). The uncertainty in the final parameter estimates was evaluated using a sampling importance-resampling (SIR) algorithm (Dosne et al. J Pharmacokinet Pharmacodyn. 2017).

[2] = Carboxylesterase pharmacokinetic experiment: oral cabazitaxel 10 mg/kg, 2 h, in wild-type, Ces1cde−/− and Ces1−/− mice; format: in vivo; settings: for lower plasma AUC0-2h / reduction of Cmax: oral cabazitaxel 10 mg/kg; for Kp at 2 h / Cmax / Tmax / AUC(0-t): male, FVB, mouse, po, 10 mg/kg; for Cmax / Tmax / AUC(0-t): plasma; for AUC(0-t): read-out: AUC0-120min
Protocol: The experiment was terminated by cardiac puncture at 2 hours. The organ collection and sample pretreatment were as described above.
Differences were considered statistically significant when P<0.05. All data are presented as geometric mean±SD.
This experiment was performed in the absence of ritonavir.

[3] = Cyp3a−/− compared to wild-type mice; earlier study; cited from earlier work
in vivo = assay: in vivo
Protocol: Male wild-type, Oatp1a/1b^−/−, transgenic OATP1B1 and OATP1B3 mice in an Oatp1a/1b^−/− background, Oatp1a/1b/2b1b^−/−, Ces1b^−/− and Ces1cdeb^−/− mice were used.
The Accord (20 mg/mL) formulation contains polysorbate 80, citric acid and 395 mg/mL anhydrous ethanol. […] The stock solution was further diluted 5-fold with water to obtain a 2.5 mg/mL dosing solution for oral administration. The vehicle solution only consisted of polysorbate 80, ethanol and water (1:1:8, v/v/v). All dosing solutions were prepared freshly on the day of the experiment.
The termination time point was at 2 hours and 15 minutes. […] The termination, organ collection and sample pretreatment were as described above.
Non-compartmental analysis was performed to estimate the pharmacokinetic parameters by using the software package PK solutions 2.0.2 (SUMMIT, Research Service). The linear trapezoidal rule without extrapolating to infinity was used to calculate the area under the curve (AUC) of the plasma-concentration time curve for all the compounds. The peak plasma concentration (Cmax) and the time to reach peak plasma concentration (Tmax) were obtained directly from the individual raw data. […] GraphPad Prism 9 (GraphPad Software Inc., La Jolla, CA) was used for the statistical analysis and the preparation of the graphs. […]

[4] = cabazitaxel PK model, allometrically scaled to a 70 kg human
[5] = inter-individual variability, population PK model, Cyp3aXAV mice
[6] = Ces1cde−/− compared to wild-type mice
[7] = Ces1−/− compared to wild-type mice
[8] = Ces1cde−/− mice, oral 10 mg/kg cabazitaxel
[9] = Ces1−/− mice, oral 10 mg/kg cabazitaxel
[10] = wild-type mice, oral 10 mg/kg cabazitaxel
[11] = wild-type mice, oral 10 mg/kg cabazitaxel, 2 h

With `CO[C@H]1C(=O)[C@]2(C)[C@@H](OC)C[C@H]3OC[C@@]3(OC(C)=O)[C@H]2[C@H](OC(=O)c2ccccc2)[C@]2(O)C[C@H](OC(=O)[C@H](O)[C@@H](NC(=O)OC(C)(C)C)c3ccccc3)C(C)=C1C2(C)C` [cabazitaxel] the “Ka, 10 mg/kg, First-order absorption rate constant when co-administered with 10 mg/kg ritonavir” value ([1]; cabazitaxel PK model) was 2.62 h⁻¹, the “Ka, 25 mg/kg, First-order absorption rate constant when co-administered with 25 mg/kg ritonavir” value ([1]; cabazitaxel PK model) was 1.22 h⁻¹ and the “Ka, First-order absorption rate constant” value ([1]; cabazitaxel PK model, Cyp3aXAV mice) was 5.83 h⁻¹. The “CLint, Uninhibited intrinsic clearance” value ([1]; cabazitaxel PK model, Cyp3aXAV mice, allometrically scaled to a 70 kg human) was 106 L/h, the “Q2, Inter compartment clearance” value [1, 4] was 27.7 L/h and the “VP, Peripheral volume” value [1, 4] was 613 L. The “IIV F” value [1, 5] was 22.7 CV %, the “IIV Ka” value [1, 5] was 63.4 CV % and the “VC, Central volume” value ([1]; population PK model, Cyp3aXAV mice, allometrically scaled to a 70 kg human) was 293 L. For the same compound, the “lower absolute testis concentration” value ([2]; Ces1cde−/− compared to wild-type mice, 2 h) was 2.3 fold, the “lower plasma AUC0-2h” value [2, 6] was 6.7 fold and the “reduction of Cmax” value [2, 6] was 5.4 fold. For the same compound, the “SIC (% of dose), small intestinal content as percentage of dose” value (from here on “SIC (% of dose) … as percentage of dose”) ([2]; Ces1cde−/− mice, oral 10 mg/kg cabazitaxel, 2 h) was 0.16 ± 0.09 % of dose, the “lower absolute testis concentration” value ([2]; Ces1−/− compared to wild-type mice, 2 h) was 2.6 fold and the “lower plasma AUC0-2h” value [2, 7] was 7.2 fold. For the same compound, the “reduction of Cmax” value [2, 7] was 6.0 fold, the “SIC (% of dose) … as percentage of dose” value ([2]; Ces1−/− mice, oral 10 mg/kg cabazitaxel, 2 h) was 0.10 ± 0.04 % of dose and the Kp at 2 h ([2]; brain, Ces1cde−/− mice, oral 10 mg/kg cabazitaxel, 2 h, read-out: Brain-to-plasma ratio) was 0.28 ± 0.06. The Kp at 2 h ([2]; brain, Ces1−/− mice, oral 10 mg/kg cabazitaxel, 2 h, read-out: Brain-to-plasma ratio) was 0.43 ± 0.06, the Kp at 2 h ([2]; brain, wild-type mice, oral 10 mg/kg cabazitaxel, 2 h, read-out: Brain-to-plasma ratio) was 0.04 ± 0.003 and the Kp at 2 h ([2]; liver, Ces1cde−/− mice, oral 10 mg/kg cabazitaxel, 2 h, read-out: Liver-to-plasma ratio) was 13.1 ± 4.6. It also gave a Kp at 2 h ([2]; liver, Ces1−/− mice, oral 10 mg/kg cabazitaxel, 2 h, read-out: Liver-to-plasma ratio) of 14.9 ± 4.49, a Kp at 2 h ([2]; liver, wild-type mice, oral 10 mg/kg cabazitaxel, 2 h, read-out: Liver-to-plasma ratio) of 1.64 ± 0.59 and a Cmax [2, 8] of 1080 ± 450 nM. For the same compound, the Tmax [2, 8] was 25 min, the AUC(0-t) [2, 8] was 1.03 ± 0.395 µM·h and the Cmax [2, 9] was 969 ± 219 nM. For the same compound, the Tmax [2, 9] was 32.5 min, the AUC(0-t) [2, 9] was 0.946 ± 0.22 µM·h and the Cmax [2, 10] was 5830 ± 1800 nM. The Tmax [2, 10] was 25 min, the AUC(0-t) [2, 10] was 6.86 ± 1.94 µM·h and the CLiver [2, 11] was 2035 ± 460 pmol/g. For the same compound, the Cbrain [2, 11] was 49.9 ± 5.96 pmol/g, the “SIC (% of dose) … as percentage of dose” value [2, 11] was 0.11 ± 0.06 % of dose and the “previously observed difference of plasma AUC” value [3] was “approximately 6 fold”.
Compound `CC(C)c1nc(CN(C)C(=O)N[C@H](C(=O)N[C@@H](Cc2ccccc2)C[C@H](O)[C@H](Cc2ccccc2)NC(=O)OCc2cncs2)C(C)C)cs1` [ritonavir] has a Tmax (in vivo; male, FVB, mouse, in vivo, po, 25 mg/kg) of 65 min and a Cbrain (in vivo; wild-type mice, oral 25 mg/kg ritonavir alone, 2 h 15 min) of 123 ± 57.8 pmol/g.
